Reference: patent publication US7847065B2, “CXADRL1 polypeptides relating to human cancers” (Oncotherapy Science, Inc., priority 2002, dated 2010)
Ends that are not written are not given here.

Assays:
RNF43 = test: Suppression of RNF43 expression by antisense S-oligonucleotide (semi-quantitative RT-PCR), LoVo cells; type: cell-based, human; details: 12 hours after transfection
Experimental: Total RNA was extracted with Qiagen RNeasy kit (Qiagen) or Trizol reagent (Life Technologies) according to the manufacturers' protocols. Ten-microgram aliquots of total RNA were reversely transcribed for single-stranded cDNAs using poly dT12-18 primer (Amersham Pharmacia Biotech) with Superscript II reverse transcriptase (Life Technologies). Each single-stranded cDNA preparation was diluted for subsequent PCR amplification by standard RT-PCR experiments carried out in 20 μl volumes of PCR buffer (TaKaRa). Amplification was conducted under following conditions: denaturing for 4 min at 94° C., followed by 20 (for GAPDH), 35 (for CXADRL1), 30 (for GCUD1), 30 (for RNF43) cycles of 94° C. for 30 s, 56° C. for 30 s, and 72° C. for 45 s, in GeneAmp PCR system 9700 (Perkin-Elmer, Foster City, Calif.). Primer sequences were; for GAPDH: forward, 5′-[…] (SEQ ID NO: 7) and reverse, 5′-[…] (SEQ ID NO: 8); for CXADRL1: forward, 5′-[…] (SEQ ID NO: 9) and reverse: 5′-TATAAACCAG CTGAGTCCAGAG (SEQ ID NO: 10); for GCUD1 forward: 5′-[…] (SEQ ID NO: 11) reverse: 5′-[…] (SEQ ID NO: 12), for RNF43 forward; 5′-[…]-3′ (SEQ ID NO: 13) and reverse; 5′-[…]-3′ (SEQ ID NO: 14).
Cells plated onto 10-cm dishes (2×10^5 cells/dish) were transfected either with plasmid, or synthetic S-oligonucleotides of CXADRL1, GCUD1, or RNF43 using LIPOFECTIN Reagent (GIBCO BRL). […]

LoVo colon cancer cells = test: MTT assay after transfection of S-oligonucleotides, LoVo; type: cell-based, human; details: six days after transfection
Experimental: Cells plated onto 10-cm dishes (2×10^5 cells/dish) were transfected either with plasmid, or synthetic S-oligonucleotides of CXADRL1, GCUD1, or RNF43 using LIPOFECTIN Reagent (GIBCO BRL). Then the cells were cultured with the addition of an appropriate concentration of geneticin for six to twelve days. The cells were then fixed with 100% methanol and stained by Giemsa solution. Sequences of the S-oligonucleotides were as follows:
Cells plated at a density of 5×10^5 cells/100 mm dish were transfected in triplicate with sense or antisense S-oligonucleotides designated to suppress the expression of CXADRL1, GCUD1, or RNF43. […] Subsequently, the cells were lysed by the addition of 1 ml of 0.01 N HCl/10% SDS and the absorbance of lysates was measured with ELISA plate reader at a test wavelength of 570 nm (reference, 630 nm). The cell viability was represented by the absorbance compared to that of control cells.

Experimental for HCT116: (§1) Target cells were labeled with 100 μCi of Na2^51CrO4 (Perkin Elmer Life Sciences) for 1 h at 37° C. in a CO2 incubator. When peptide-pulsed targets were used, target cells were incubated with the addition of 20 μg/ml of the peptide for 16 h at 37° C. before the labeling with Na2^51CrO4. Target cells were rinsed and mixed with effectors at a final volume of 0.2 ml in round-bottom microtiter plates. The plates were centrifuged (4 minutes at 800×g) to increase cell-to-cell contact and placed in a CO2 incubator at 37° C. After 4 h of incubation, 0.1 ml of the supernatant was collected from each well and the radioactivity was determined with a gamma counter. In case of evaluating cytotoxicity against target cells that endogenously express RNF43, CXADRL1, or GCUD1, the cytolytic activity was tested in the presence of a 30-fold excess of unlabeled K562 cells to reduce any non-specific lysis due to NK-like effectors. […]
(§2) The percentage of specific cytotoxicity was determined by calculating the percentage of specific ^51Cr-release by the following formula: {(cpm of the test sample release−cpm of the spontaneous release)/(cpm of the maximum release−cpm of the spontaneous release)}×100. Spontaneous release was determined by incubating the target cells alone in the absence of effectors, and the maximum release was obtained by incubating the targets with 1N HCl. […]
Experimental for HT29: (§3) Target cells were labeled with 100 μCi of Na2^51CrO4 (Perkin Elmer Life Sciences) for 1 h at 37° C. in a CO2 incubator. When peptide-pulsed targets were used, target cells were incubated with the addition of 20 μg/ml of the peptide for 16 h at 37° C. before the labeling with Na2^51CrO4. Target cells were rinsed and mixed with effectors at a final volume of 0.2 ml in round-bottom microtiter plates. The plates were centrifuged (4 minutes at 800×g) to increase cell-to-cell contact and placed in a CO2 incubator at 37° C. After 4 h of incubation, 0.1 ml of the supernatant was collected from each well and the radioactivity was determined with a gamma counter. In case of evaluating cytotoxicity against target cells that endogenously express RNF43, CXADRL1, or GCUD1, the cytolytic activity was tested in the presence of a 30-fold excess of unlabeled K562 cells to reduce any non-specific lysis due to NK-like effectors. […] The MHC restriction was examined by blocking assay, measuring the inhibition of the cytotoxicity with anti-HLA-class I (W6/32) antibody and anti-HLA-class II antibody, or anti-CD4 antibody and anti-CD8 antibody (DAKO).
(§4) The percentage of specific cytotoxicity was determined by calculating the percentage of specific ^51Cr-release by the following formula: {(cpm of the test sample release−cpm of the spontaneous release)/(cpm of the maximum release−cpm of the spontaneous release)}×100. Spontaneous release was determined by incubating the target cells alone in the absence of effectors, and the maximum release was obtained by incubating the targets with 1N HCl. All determinants were done in duplicate, and the standard errors of the means were consistently below 10% of the value of the mean.
Experimental for SNU-C4: as §1, §2
Experimental for TISI cells (HLA-A24/24): as §3, §4
Experimental for WiDR cells: as §3

Substance | Expression of RNF43 compared to control S-oligonucleotides (RNF43-S1) (RNF43) | Number of surviving cells compared with RNF43-S1 (LoVo colon cancer cells) | Cytotoxic activity of CTL clone on WiDR (WiDR) | Cytotoxicity of CTL clone on WiDR with anti-HLA-Class I, CD3, and CD8 antibodies (WiDR cells) | Cytotoxic activity of CTL clone against SNU-C4 (SNU-C4) | Cytotoxic activity of CTL clone on HCT116 (HCT116) | Cytotoxic activity of CTL clone on irrelevant peptide pulsed TISI (TISI cells (HLA-A24/24)) | Cytotoxicity of CTL lines (9mer) ×2 Pep(+) (TISI cells (HLA-A24/24)) | Cytotoxicity of CTL lines (9mer) ×2 Pep(−) (TISI cells (HLA-A24/24)) | Cytotoxicity of CTL lines (9mer) ×20 Pep(+) (TISI cells (HLA-A24/24)) | Cytotoxicity of CTL lines (9mer) ×20 Pep(−) (TISI cells (HLA-A24/24)) | Cytotoxic activity of CTL clone on HT29 (HT29)
5′-ACCACTCATGCTACCA-3′ (phosphorothioate, further chemistry not given here) [RNF43-AS1, antisense S-oligonucleotide] | significantly suppressed | significantly fewer |  |  |  |  |  |  |  |  |  | 
NSQPVWLCL [RNF43-721, NSQPVWLCL] |  |  | potent cytotoxic activity | significantly inhibited | did not show any cytotoxic activity | did not show any cytotoxic activity | did not show any cytotoxic activity | 26% | 0% | 68% | 0% | potent cytotoxic activity
